Here are results for three compounds from article PMC9044501 (Journal of molecular biology, 2021).

Experiment [1] has as its target T1, myosin in bovine cardiac synthetic thick filaments (BcSTF) (Bos taurus, UniProt Q9BE39). Nature of the experiment: Single mant-ATP turnover kinetics in BcSTF. In kind it is biochemical.
Experiment [2] addresses T2, bovine cardiac myofibrils (BcMF) (Bos taurus, UniProt Q9BE39). Nature of the experiment: Single mant-ATP turnover kinetics in BcMF. It counts as biochemical.
For the next experiment, the system named is myosin. Put plainly: Blebbistatin binding to myosin in the presence of mavacamten. The settings on record: Fig. S2.
The target of experiment [3] is T1, myosin in bovine cardiac synthetic thick filaments (BcSTF). Put plainly: Basal myosin ATPase activity. Particulars: read-out: Basal ATPase (BcSTF) IC50, 1 μM myosin, 23°C. In kind it is biochemical.
The target of experiment [4] is T3, human β-cardiac 25-hep HMM (Homo sapiens, UniProt P12883). Nature of the experiment: Small-angle X-ray scattering. Particulars: at 20 μM mavacamten and 50 μM para-nitroblebbistatin.
Experiment [5] has as its target T2, bovine cardiac myofibrils (BcMF). Put plainly: Myofibrillar ATPase activity at pCa 6. It counts as biochemical. The settings on record: read-out: Myofibrillar ATPase (BcMF) IC50, pCa 6, 23°C.
Experiment [6] concerns the target T3, human β-cardiac 25-hep HMM. Nature of the experiment: SEC-MALS-DLS light scattering of 25-hep HMM. The settings on record: at 20 μM mavacamten and 50 μM para-nitroblebbistatin.

T1 sequence (Q9BE39 whole entry): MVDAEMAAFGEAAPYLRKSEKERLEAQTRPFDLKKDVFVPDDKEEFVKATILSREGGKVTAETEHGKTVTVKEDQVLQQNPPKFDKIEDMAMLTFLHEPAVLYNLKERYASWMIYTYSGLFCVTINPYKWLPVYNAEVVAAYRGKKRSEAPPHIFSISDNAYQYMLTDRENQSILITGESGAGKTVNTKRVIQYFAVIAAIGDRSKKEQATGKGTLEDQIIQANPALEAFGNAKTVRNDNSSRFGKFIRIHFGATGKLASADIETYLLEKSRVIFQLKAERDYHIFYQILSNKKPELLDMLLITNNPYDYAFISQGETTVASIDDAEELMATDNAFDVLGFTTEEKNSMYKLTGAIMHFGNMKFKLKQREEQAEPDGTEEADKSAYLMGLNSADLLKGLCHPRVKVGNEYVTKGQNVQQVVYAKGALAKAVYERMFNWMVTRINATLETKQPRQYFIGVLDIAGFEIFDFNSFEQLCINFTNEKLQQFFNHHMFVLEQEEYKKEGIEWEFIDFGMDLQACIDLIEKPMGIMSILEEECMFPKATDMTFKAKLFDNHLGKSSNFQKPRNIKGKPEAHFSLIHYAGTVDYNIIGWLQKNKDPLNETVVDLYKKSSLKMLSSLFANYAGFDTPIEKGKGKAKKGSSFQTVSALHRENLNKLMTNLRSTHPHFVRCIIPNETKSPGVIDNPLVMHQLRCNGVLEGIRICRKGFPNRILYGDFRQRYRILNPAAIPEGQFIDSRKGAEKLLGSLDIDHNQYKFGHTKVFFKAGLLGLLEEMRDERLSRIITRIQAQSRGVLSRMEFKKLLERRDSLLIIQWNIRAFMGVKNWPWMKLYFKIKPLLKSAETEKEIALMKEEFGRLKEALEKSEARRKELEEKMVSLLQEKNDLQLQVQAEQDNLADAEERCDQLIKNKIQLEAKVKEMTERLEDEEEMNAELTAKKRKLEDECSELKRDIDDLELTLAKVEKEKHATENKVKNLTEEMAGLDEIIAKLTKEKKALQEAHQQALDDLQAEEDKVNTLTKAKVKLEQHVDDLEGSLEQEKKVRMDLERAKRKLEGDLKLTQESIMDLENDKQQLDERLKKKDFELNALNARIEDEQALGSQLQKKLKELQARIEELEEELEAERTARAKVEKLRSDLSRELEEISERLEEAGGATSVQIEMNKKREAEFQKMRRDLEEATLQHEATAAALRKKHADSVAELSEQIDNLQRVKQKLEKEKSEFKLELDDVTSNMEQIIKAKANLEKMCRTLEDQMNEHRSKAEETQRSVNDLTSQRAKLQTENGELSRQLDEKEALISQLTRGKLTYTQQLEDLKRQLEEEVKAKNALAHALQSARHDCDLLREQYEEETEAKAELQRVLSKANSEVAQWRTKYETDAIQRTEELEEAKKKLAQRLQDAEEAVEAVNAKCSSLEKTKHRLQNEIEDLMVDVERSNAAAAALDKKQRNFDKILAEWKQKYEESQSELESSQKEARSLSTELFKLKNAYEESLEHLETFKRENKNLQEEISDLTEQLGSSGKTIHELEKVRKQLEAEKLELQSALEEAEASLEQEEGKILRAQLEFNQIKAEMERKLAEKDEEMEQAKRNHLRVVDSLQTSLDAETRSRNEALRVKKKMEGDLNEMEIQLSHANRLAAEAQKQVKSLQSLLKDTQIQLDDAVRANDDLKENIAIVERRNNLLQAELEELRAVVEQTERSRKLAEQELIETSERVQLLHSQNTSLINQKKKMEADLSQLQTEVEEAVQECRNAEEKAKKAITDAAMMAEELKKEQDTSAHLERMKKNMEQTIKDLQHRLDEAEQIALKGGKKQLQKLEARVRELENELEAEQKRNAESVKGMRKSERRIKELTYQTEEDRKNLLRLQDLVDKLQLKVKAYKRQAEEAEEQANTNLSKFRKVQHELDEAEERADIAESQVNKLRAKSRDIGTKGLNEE
T1 sequence (P85100 whole entry partner): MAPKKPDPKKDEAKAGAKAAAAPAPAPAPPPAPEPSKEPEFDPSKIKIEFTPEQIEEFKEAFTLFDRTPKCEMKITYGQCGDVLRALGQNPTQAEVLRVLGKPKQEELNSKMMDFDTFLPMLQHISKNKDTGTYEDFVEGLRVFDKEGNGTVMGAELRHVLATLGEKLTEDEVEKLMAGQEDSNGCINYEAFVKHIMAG
T1 sequence (Q3SZE5 whole entry partner): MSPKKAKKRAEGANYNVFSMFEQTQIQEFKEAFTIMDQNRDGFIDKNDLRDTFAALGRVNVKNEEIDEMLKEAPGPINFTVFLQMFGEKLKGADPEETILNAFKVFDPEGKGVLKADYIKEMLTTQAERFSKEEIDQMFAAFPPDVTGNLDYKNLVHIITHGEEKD
T2 sequence (Q9BE39 whole entry): as the sequence (Q9BE39 whole entry) above
T2 sequence (P85100 whole entry partner): as the sequence (P85100 whole entry partner) above
T2 sequence (Q3SZE5 whole entry partner): as the sequence (Q3SZE5 whole entry partner) above

In the case of `CC(C)n1c(=O)cc(N[C@@H](C)c2ccccc2)[nH]c1=O` [Mavacamten, mavacamten], the Hill coefficient in experiment [1] (DRX to SRX shift, up to 3.125 μM) is reported as 2–4. In addition, the “magnitude of myosin SRX population” value in experiment [1] (saturating concentrations) is ~ 100%; in experiment [2] (saturating concentrations) it was ~ 65%.

For the compound `Cc1ccc2c(c1)C(=O)C1(O)CCN(c3ccccc3)C1=N2` (centres unmarked) [blebbistatin], in the experiment on myosin, the “binding of blebbistatin in the presence of mavacamten” value is reported as “not compromised”.

For the compound `Cc1ccc2c(c1)C(=O)[C@]1(O)CCN(c3ccc([N+](=O)[O-])cc3)C1=N2` [Para-nitroblebbistatin, para-nitroblebbistatin], the IC50 in experiment [3] was found to be 2.37 ± 0.12 µM. In experiment [1] (experiment duration 2400 s), the “lifetime of mant-nucleotides for compound-bound myosin” value is listed as greater than 2400 s. The IC50 in experiment [1] (read-out: DRX ATPase Rate, kfast (BcSTF), half-maximal decrease, 0μM blebbistatin) was greater than 12.5 µM. Moreover, the EC50 in experiment [1] (read-out: SRX Amplitude, Aslow (BcSTF), half-maximal increase, 0μM blebbistatin) is greater than 12.5 µM. Further, in experiment [4], the “I(0), Guinier Analysis” value is 0.04 ± 0.01 cm⁻¹; the “I(0), P(r) Analysis” value is 0.04 ± 0 cm⁻¹; the “Porod volume, P(r) Analysis” value is 1.42e6 Å^−3; the “Rg, Guinier Analysis” value is listed as 102.5±1.5 Å. Also, in experiment [4], the “Rg, P(r) Analysis” value is recorded as 124±10 Å; the “reduction of Rg (Guinier) compared to untreated 25-hep HMM” value amounted to 14%; the “reduction of Rg (P(r) analysis) compared to untreated 25-hep HMM” value turned out to be 11%. For the same compound, the IC50 in experiment [2] (read-out: DRX ATPase Rate, kfast (BcMF), half-maximal decrease) was greater than 12.5 µM. Further, the EC50 in experiment [2] (read-out: SRX Amplitude, Aslow (BcMF), half-maximal increase) was greater than 12.5 µM. Further, the IC50 in experiment [5] stood at 4.05 ± 0.34 µM. For the same compound, in experiment [6], the “Hydrodynamic radius of 25-hep HMM (DLS)” value is recorded as 84.1±2.2 Å and the “Molecular Mass of 25-hep HMM (MALS)” value worked out at 363±14 kDa.
